Results published in the supplement of paper PMC10307832.

What was measured:
Assay in all cases: relative viability (nuclei count vs DMSO), 5 days (fraction); higher = more cells survive
NCI-H1437 = tested on: NCI-H1437
Procedure, shortened: (§1)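 Relative viability equals treated-well nuclei counts divided by vehicle-well nuclei counts. Counts came from 4× images of lung cancer cell lines grown in 1536-well plates for 5 days after pin-tool dosing on the day after seeding. Dosing used one drug alone or a fixed anchor-drug dose plus five library-drug doses (not always all listed) in √10 steps, and values are medians of duplicate plates.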

RERF-LC-KJ = tested on: RERF-LC-KJ
Procedure, shortened: as §1

NCI-H1793 = tested on: NCI-H1793
Procedure, shortened: as §1

HCC-44 = tested on: HCC-44
Procedure, shortened: as §1

NCI-H1395 = tested on: NCI-H1395
Procedure, shortened: as §1

NCI-H322M = tested on: NCI-H322M
Procedure, shortened: as §1

BEN = tested on: BEN
Procedure, shortened: as §1

NCI-H1355 = tested on: NCI-H1355
Procedure, shortened: as §1

CAL-12T = tested on: CAL-12T
Procedure, shortened: as §1

LCLC-97TM1 = tested on: LCLC-97TM1
Procedure, shortened: as §1

NCI-H647 = tested on: NCI-H647
Procedure, shortened: as §1

NCI-H2087 = tested on: NCI-H2087
Procedure, shortened: as §1

NCI-H1650 = tested on: NCI-H1650
Procedure, shortened: as §1

NCI-H2405 = tested on: NCI-H2405
Procedure, shortened: as §1

201T = tested on: 201T
Procedure, shortened: as §1

NCI-H3122 = tested on: NCI-H3122
Procedure, shortened: as §1

NCI-H727 = tested on: NCI-H727
Procedure, shortened: as §1

NCI-H2228 = tested on: NCI-H2228
Procedure, shortened: as §1

HOP-62 = tested on: HOP-62
Procedure, shortened: as §1

LXF-289 = tested on: LXF-289
Procedure, shortened: as §1

HCC-827 = tested on: HCC-827
Procedure, shortened: as §1

SK-LU-1 = tested on: SK-LU-1
Procedure, shortened: as §1

LCLC-103H = tested on: LCLC-103H
Procedure, shortened: as §1

NCI-H2023 = tested on: NCI-H2023
Procedure, shortened: as §1

C[C@@H]1CN(CC(=O)Nc2ccc3c(c2)Cc2cccc(-c4cc(=O)cc(N5CCOCC5)o4)c2S3)C[C@H](C)O1 + CS(=O)(=O)N1CCN(Cc2cc3nc(-c4cccc5[nH]ncc45)nc(N4CCOCC4)c3s2)CC1 [Pictilisib] (partner 1 µM)
relative viability (NCI-H1437; first compound 0.04 µM): 0.416
relative viability (NCI-H1437; first compound 0.1265 µM): 0.45
relative viability (NCI-H1437; first compound 0.4 µM): 0.339
relative viability (NCI-H1437; first compound 4 µM): 0.477
relative viability (RERF-LC-KJ; first compound 0.04 µM): 0.591
relative viability (RERF-LC-KJ; first compound 0.1265 µM): 0.531
relative viability (RERF-LC-KJ; first compound 0.4 µM): 0.523
relative viability (RERF-LC-KJ; first compound 4 µM): 0.487
relative viability (NCI-H1793; first compound 0.04 µM): 0.374
relative viability (NCI-H1793; first compound 0.1265 µM): 0.297
relative viability (NCI-H1793; first compound 0.4 µM): 0.346
relative viability (NCI-H1793; first compound 4 µM): 0.335
relative viability (HCC-44; first compound 0.04 µM): 0.616
relative viability (HCC-44; first compound 0.1265 µM): 0.573
relative viability (HCC-44; first compound 0.4 µM): 0.465
relative viability (HCC-44; first compound 4 µM): 0.287
relative viability (NCI-H1395; first compound 0.04 µM): 0.66
relative viability (NCI-H1395; first compound 0.1265 µM): 0.556
relative viability (NCI-H1395; first compound 0.4 µM): 0.502
relative viability (NCI-H1395; first compound 4 µM): 0.559
relative viability (NCI-H322M; first compound 0.04 µM): 0.365
relative viability (NCI-H322M; first compound 0.1265 µM): 0.506
relative viability (NCI-H322M; first compound 0.4 µM): 0.452
relative viability (NCI-H322M; first compound 4 µM): 0.565
relative viability (BEN; first compound 0.04 µM): 0.556
relative viability (BEN; first compound 0.1265 µM): 0.537
relative viability (BEN; first compound 0.4 µM): 0.601
relative viability (BEN; first compound 4 µM): 0.513
relative viability (NCI-H1355; first compound 0.04 µM): 0.229
relative viability (NCI-H1355; first compound 0.1265 µM): 0.43
relative viability (NCI-H1355; first compound 0.4 µM): 0.418
relative viability (NCI-H1355; first compound 4 µM): 0.331
relative viability (CAL-12T; first compound 0.04 µM): 0.396
relative viability (CAL-12T; first compound 0.1265 µM): 0.487
relative viability (CAL-12T; first compound 0.4 µM): 0.396
relative viability (CAL-12T; first compound 4 µM): 0.378
relative viability (LCLC-97TM1; first compound 0.1265 µM): 0.191
relative viability (LCLC-97TM1; first compound 0.4 µM): 0.144
relative viability (LCLC-97TM1; first compound 4 µM): 0.18
relative viability (NCI-H647; first compound 0.04 µM): 0.258
relative viability (NCI-H647; first compound 0.1265 µM): 0.397
relative viability (NCI-H647; first compound 0.4 µM): 0.204
relative viability (NCI-H647; first compound 4 µM): 0.393
relative viability (NCI-H2087; first compound 0.04 µM): 1.05
relative viability (NCI-H2087; first compound 0.1265 µM): 0.806
relative viability (NCI-H2087; first compound 0.4 µM): 1.02
relative viability (NCI-H2087; first compound 4 µM): 0.541
relative viability (NCI-H1650; first compound 0.04 µM): 0.32
relative viability (NCI-H1650; first compound 0.1265 µM): 0.605
relative viability (NCI-H1650; first compound 0.4 µM): 0.651
relative viability (NCI-H1650; first compound 4 µM): 0.621
relative viability (NCI-H2405; first compound 0.04 µM): 0.414
relative viability (NCI-H2405; first compound 0.1265 µM): 0.461
relative viability (NCI-H2405; first compound 0.4 µM): 0.358
relative viability (NCI-H2405; first compound 4 µM): 0.406
relative viability (201T; first compound 0.04 µM): 0.668
relative viability (201T; first compound 0.1265 µM): 0.65
relative viability (201T; first compound 0.4 µM): 0.652
relative viability (201T; first compound 4 µM): 0.647
relative viability (NCI-H3122; first compound 0.04 µM): 0.656
relative viability (NCI-H3122; first compound 0.1265 µM): 0.532
relative viability (NCI-H3122; first compound 0.4 µM): 0.513
relative viability (NCI-H3122; first compound 4 µM): 0.472
relative viability (NCI-H727; first compound 0.04 µM): 0.291
relative viability (NCI-H727; first compound 0.1265 µM): 0.421
relative viability (NCI-H727; first compound 0.4 µM): 0.252
relative viability (NCI-H727; first compound 4 µM): 0.385
relative viability (NCI-H2228; first compound 0.04 µM): 0.355
relative viability (NCI-H2228; first compound 0.1265 µM): 0.256
relative viability (NCI-H2228; first compound 0.4 µM): 0.372
relative viability (NCI-H2228; first compound 4 µM): 0.472
relative viability (HOP-62; first compound 0.04 µM): 0.359
relative viability (HOP-62; first compound 0.1265 µM): 0.626
relative viability (HOP-62; first compound 0.4 µM): 0.753
relative viability (HOP-62; first compound 4 µM): 0.605
relative viability (LXF-289; first compound 0.04 µM): 0.852
relative viability (LXF-289; first compound 0.1265 µM): 0.789
relative viability (LXF-289; first compound 0.4 µM): 0.78
relative viability (LXF-289; first compound 4 µM): 0.792
relative viability (HCC-827; first compound 0.04 µM): 0.987
relative viability (HCC-827; first compound 0.1265 µM): 1.03
relative viability (HCC-827; first compound 0.4 µM): 1.22
relative viability (HCC-827; first compound 4 µM): 0.995
relative viability (SK-LU-1; first compound 0.04 µM): 0.657
relative viability (SK-LU-1; first compound 0.1265 µM): 0.594
relative viability (SK-LU-1; first compound 0.4 µM): 0.702
relative viability (SK-LU-1; first compound 4 µM): 0.484
relative viability (LCLC-103H; first compound 0.04 µM): 0.547
relative viability (LCLC-103H; first compound 0.1265 µM): 0.557
relative viability (LCLC-103H; first compound 0.4 µM): 0.582
relative viability (LCLC-103H; first compound 4 µM): 0.668
relative viability (NCI-H2023; first compound 0.04 µM): 0.115
relative viability (NCI-H2023; first compound 0.1265 µM): 0.262
relative viability (NCI-H2023; first compound 0.4 µM): 0.197
relative viability (NCI-H2023; first compound 4 µM): 0.198
